According to PMC10578023 (Cell Communication and Signaling : CCS, 2023):

Tests used:
[1] = tested on: forty-four safety targets; test: In vitro off-target panel of 44 safety targets; settings: 10 µM
Procedure: The pharmacologic safety of QL-1200186 was tested by analyzing forty-four safety targets in vitro. The off-target effects of QL-1200186 on 24 G protein-coupled receptors (β1, β2, D1, H2, A2A, CB1, CB2,5-HT1A, 5-HT1B and D2S) were evaluated by measuring the changes in cyclic adenosine monophosphate and IP-1 levels. The effects of QL-1200186 on the current changes of eight ion-channel targets were determined by methods based on fluorescent imaging plate reading and patch clamps. Using stable transfer or transient plasmid transfer, the excitatory and inhibitory effects of QL-1200186 on glucocorticoid receptors and androgen receptors in the nucleus were determined by the change in luciferase expression. The inhibitory effects of QL-1200186 on seven enzymes (including cyclo-oxygenase-2, phosphodiesterase (PDE) 3A and PDE4D2) were evaluated by biochemical methods based on luminescence and fluorescence. After data analyses, radar charts were used to display the results.

TYK2/JAK1 [2] = test: IFNα HEK293 (HEK-Blue IFN-α/β) reporter gene assay; assay type: cell-based, human
Procedure: HEK-Blue™ IFN-α/β cells were used to determine the activity of QL-1200186. After 24 h of incubation with QL-1200186, HEK-Blue™ IFN-α/β cells (Invivogen; NKB-IFNAB) were stimulated with human IFNα (200 U/mL; catalog number: 11200–2; PBL Assay Science; Piscataway, NJ, USA) for 6 h. Stimulation of HEK-Blue IFN-α/β cells with human IFNα activates the JAK/STAT/ISGF3 pathway and subsequently induces the production of SEAP. Levels of SEAP in the supernatant were readily assessable using QUANTI-Blue™ Solution (InvivoGen, San Diego, CA, USA).

TYK2/JAK1 [3] = test: IL-23 HEK293 reporter assay; assay type: cell-based, human
TYK2/JAK1 [4] = test: IFNα-stimulated pSTAT5 in human PBMC (CD3+), FACS; assay type: cell-based
Procedure: With regard to IFNα-stimulated phosphorylation of STAT5 in human peripheral blood mononuclear cells (PBMCs), after incubation with QL-1200186 for 1 h, human PBMCs were stimulated with recombinant human IFNα (1000 U/mL; 11200–2; PBL Assay Science) for 30 min.
The stimulations stated above were terminated with prewarmed Lyse/Fix Buffer (558,049; BD Biosciences, San Jose, CA, USA) for 10 min. Cells were stained with an anti-cluster of differentiation (CD)3 fluorescein isothiocyanate (FITC) antibody (required for PBMCs but not for the other cell types), washed, and permeabilized on ice using Perm III Buffer (558,050; BD Biosciences) prior to staining with an Alexa Fluor 647 anti-phosphorylated (p)STAT5 (pY694) antibody for 30 min and analyzed by flow cytometry. Phosphorylation of STAT5 was quantified by the median fluorescence intensity (MFI) after gating on the CD3-positive population.

TYK2/JAK1 [5] = test: IFNα-induced pSTAT1 in CD3+ T cells of human PBMCs; assay type: cell-based
Procedure: The reaction was terminated by collecting cells for surface staining. Cells were stained with anti-CD3 FITC (300406; Biolegend, San Diego, CA, USA), anti-CD19 APC (555415; BD Biosciences) or aqua fluorescent reactive dye BV421 (L34966A; Invitrogen, Carlsbad, CA, USA) antibodies for 20 min. After washing, fixation buffer (557870; BD Biosciences) was added and incubated for 10 min. Cells were washed and permeabilized on ice using Perm III Buffer (558050; BD Biosciences). Cells were stained with PE anti-PSTAT1 antibody (562069; BD Biosciences) for 30 min and analyzed by flow cytometry.

human monocytes = test: IFNα-induced differentiation of human monocytes to dendritic cells (CD80, CD83, CD86); assay type: cell-based; settings: 5, 20 or 100 nM, 6 days
Procedure: First, monocytes in human PBMCs were isolated using an EasySep™ Human CD14 Positive Selection Kit II (17858; Stemcell Technologies, Vancouver, Canada). […] The media were half-changed on days 3 and 5. On day 6, cells were collected and stained with BV421 aqua fluorescent reactive dye (L34966A; Invitrogen), FITC mouse anti-human CD80 (555683; BD Biosciences), PE mouse anti-human CD86 (560957; BD Biosciences) or BUV737 mouse anti-human CD83 (612823; BD Biosciences) antibodies for 20 min. After staining, cells were washed twice and analyzed by flow cytometry.

Plasma protein binding = assay type: in vitro ADME
Procedure: The ADME properties of QL-1200186 in vitro were measured by the following assays: Caco-2 permeability assay, CYP inhibition assay, protein binding assay, and liver microsome assay. Each assay was performed as previously described.

[6] = tested on: IL-12/IL-18-driven IFNγ production; test: IL-12/IL-18-induced IFNγ release in mice; assay type: in vivo
Procedure: Healthy female, specific pathogen-free C57BL/6 mice (6–8 weeks) were intraperitoneally (i.p.) injected with IL-12 and IL-18 to drive IFNγ production. Mice were numbered, weighed and divided randomly into seven groups of five according to body weight using Excel™ (Office™; Microsoft, Redmond, WA, USA). One hour after drug administration, IL-12 (0.01 μg/mouse) was i.p. injected. One hour later, recombinant IL-18 (0.1 μg/mouse) was injected. Whole blood was collected 3 h later and centrifuged (300 g, 10 min, 4 °C), and serum was collected. IFNγ expression in serum was determined by a CBA Flex kit (BD Biosciences).

[7] = dogs, data not shown

CNC(=O)c1cnc2cc1Nc1cc(cc(-c3ccn(C)n3)c1OC)CCOCc1cccc(n1)N2 [QL-1200186, 5^6-methoxy-N-methyl-5^5-(1-methyl-1H-pyrazol-3-yl)-8-oxa-2,4-diaza-1(2,6),3(2,4)-dipyridina-5(1,3)-benzenacyclononaphane-3^5-carboxamide]
in vitro off-target safety, 44 safety targets [1]: suitable safety
IC50 (TYK2/JAK1 [2]): 3.9 nM
IC50 (TYK2/JAK1 [3]): 0.46 nM
IC50 (TYK2/JAK1 [4]): 7.26 nM
IC50 (TYK2/JAK1 [5]): 1.61 nM
differentiation and maturation of monocytes into dendritic cells (CD80, CD83, CD86 expression) (human monocytes): significantly inhibited
PPB (%, free) (Plasma protein binding; Dog): 3.7%
PPB (%, free) (Plasma protein binding; Human): 0.844%
PPB (%, free) (Plasma protein binding; Monkey): 2.8%
PPB (%, free) (Plasma protein binding; Mouse): 0.201%
PPB (%, free) (Plasma protein binding; Rat): 1.3%
inhibition of serum IFNγ production ([6]; oral 10 mg/kg): 97.8%
inhibition of serum IFNγ production ([6]; oral, 0.1 mg/kg): 77.1%
inhibition of serum IFNγ production ([6]; oral, 1 mg/kg): 86.9%
safety in toxicological studies [7]: excellent safety
